Earlier results on 2 molecules are cited in patent publication US6310089A, “Composition for the administration of a D1-agonists” (West Pharmaceutical Services Drug Delivery & Clinical …, priority 1998, dated 2001).

The subject of data set [1] is dopamine D1 receptors.
In data set [2] the test system is Parkinson's disease. As to conditions: D1 partial agonists.

Regarding `CN1Cc2ccccc2C2c3cccc4[nH]cc(c34)CC21` (single isomer, unassigned) [CY208.243], the “agonism at dopamine D1 receptors” value in data set [1] is given as “partial agonists”. Further, the evaluation outcome in data set [2] is recorded as “inconclusive results”.

Consider `Oc1cc2c(cc1O)C(c1ccccc1)CNCC2` (stereo not shown) [SKF 38393], for which, in data set [1], the “agonism at dopamine D1 receptors” value is given as “partial agonists”. In data set [2], the evaluation outcome is given as “inconclusive results”.
